Test systems include OVCAR-8; UACC-62; A498; NCI/ADR-RES; HOP-92; IGROV-1; OVCAR-4; SF-539; OVCAR-5; T47D; HCC 2998; MDA-N; SK-MEL-5; PC-3; A549; CCRF-CEM; NCI-H522; EKVX; Hs-578T.
Common to all, as to test: growth of human tumour cells (NCI), 48 h

The values that follow come from ChEMBL document CHEMBL1201862, “PubChem BioAssay data set” (2004).

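Exposure lasted 48 hours, with cells grown in 96-well plates and compounds tested at five concentrations. Here, GI50 denotes the concentration required for 50% inhibition of growth.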 Calls of active or inactive are those of the source. Cut-off read from the data, not from the text of the source: active = GI50 up to about 1.1 µM and inactive = higher.

On to `COc1cc(C)cc2c(-c3c(O)cc(O)c4c3C[C@H](C)N[C@H]4C)cc(-c3cc(-c4c(O)cc(O)c5c4C[C@H](C)N[C@H]5C)c4cc(C)cc(OC)c4c3O)c(O)c12`, for which the GI50 with OVCAR-8, in the assay on UACC-62, in the assay on A498, with NCI/ADR-RES, in the assay on HOP-92 and in the assay on IGROV-1 was > 100 µM (inactive) throughout. The GI50 in the assay on OVCAR-4 was > 100 µM (inactive); with SF-539, > 100 µM (inactive); with OVCAR-5 it was 21.4 µM (inactive); in the assay with T47D, 63.8 µM (inactive); in the assay on HCC 2998, > 100 µM (inactive); with MDA-N, 52 µM (inactive). In addition, the GI50 with SK-MEL-5, in the assay on PC-3, in the assay on A549, in the assay with CCRF-CEM, in the assay on NCI-H522 and in the assay on EKVX was > 100 µM (inactive) each time. Further, the GI50 with Hs-578T was > 100 µM (inactive).

In the case of `O=C(O)C(Sc1ccc(Cl)cc1)Sc1ccc(Cl)cc1`, the GI50 was 43.9 µM (inactive) with OVCAR-8; 27.7 µM (inactive) in the assay with UACC-62; 34.8 µM (inactive) with A498; 47.3 µM (inactive) in the assay on NCI/ADR-RES; 23.7 µM (inactive) in the assay on HOP-92; 39.8 µM (inactive) in the assay with IGROV-1. Besides, the GI50 in the assay on OVCAR-4 is 48.4 µM (inactive); in the assay with SF-539, 39.3 µM (inactive); with OVCAR-5, 53 µM (inactive); in the assay on T47D it was 64 µM (inactive); with HCC 2998, 25.6 µM (inactive); in the assay with MDA-N, 41.5 µM (inactive). For the same compound, the GI50 was 35.6 µM (inactive) in the assay on SK-MEL-5; 47.4 µM (inactive) in the assay with PC-3; 29.9 µM (inactive) with A549; 28.6 µM (inactive) with CCRF-CEM; 32.1 µM (inactive) with NCI-H522; 31.5 µM (inactive) in the assay on EKVX. Besides, in the assay with Hs-578T, the GI50 was 38.3 µM (inactive).

Regarding `COc1cc2c(/C=C3/C(=O)N(C)c4ccccc43)c(Cl)[nH]c2cc1C`, the GI50 in the assay with OVCAR-8 was 0.324 µM (active); in the assay with UACC-62, 0.179 µM (active); in the assay with A498, 3.19 µM (inactive); in the assay on NCI/ADR-RES, 0.17 µM (active); with HOP-92 it was 1.81 µM (inactive); with IGROV-1, 0.167 µM (active). Moreover, the GI50 in the assay with OVCAR-4 is 0.0906 µM (active); in the assay on SF-539, 0.0244 µM (active); with OVCAR-5 it was 0.581 µM (active); in the assay with T47D, 1.46 µM (inactive); with HCC 2998 it was 0.101 µM (active); with MDA-N, 0.0352 µM (active). The GI50 is 0.185 µM (active) in the assay on SK-MEL-5; 0.29 µM (active) with PC-3; 0.361 µM (active) in the assay with A549; 0.303 µM (active) in the assay with CCRF-CEM; 0.183 µM (active) in the assay on NCI-H522; 0.641 µM (active) in the assay on EKVX. Moreover, in the assay on Hs-578T, the GI50 is 0.226 µM (active).

`CCOC(=O)c1nc2ccccc2nc1NCc1ccc(OC)c(OC)c1`: the GI50 with OVCAR-8, in the assay on UACC-62, with A498, in the assay on NCI/ADR-RES, in the assay on HOP-92 and with IGROV-1 was > 100 µM (inactive) throughout. Also, the GI50 in the assay with OVCAR-4, in the assay with SF-539, with OVCAR-5, with T47D, with HCC 2998 and in the assay with MDA-N was > 100 µM (inactive) each time. For the same compound, the GI50 in the assay on SK-MEL-5, with PC-3, in the assay on A549, in the assay on CCRF-CEM, with NCI-H522 and in the assay with EKVX was > 100 µM (inactive) each time. Further, the GI50 with Hs-578T is 45.9 µM (inactive).

Turning to `C=C1C(=O)O[C@@H]2[C@H]1C[C@@H](O)[C@H](C)[C@@](O)(C(=O)/C=C/C)[C@H]2OC(=O)C(C)CC` (stereo not given in full), the GI50 in the assay on OVCAR-8 is 2.22 µM (inactive); in the assay with UACC-62, 15.5 µM (inactive); in the assay with A498, 18.7 µM (inactive); in the assay on NCI/ADR-RES, 11 µM (inactive); in the assay with HOP-92 it was 3.21 µM (inactive); with IGROV-1 it was 2.58 µM (inactive). Further, the GI50 was 6.97 µM (inactive) in the assay with OVCAR-4; 7.33 µM (inactive) with SF-539; 5.47 µM (inactive) in the assay with OVCAR-5; 5.7 µM (inactive) in the assay with T47D; 14.5 µM (inactive) with HCC 2998; 3.08 µM (inactive) with MDA-N. Besides, the GI50 with SK-MEL-5 was 7.28 µM (inactive); with PC-3, 16.5 µM (inactive); in the assay on A549 it was 15.2 µM (inactive); in the assay on CCRF-CEM, 0.0428 µM (active); in the assay on NCI-H522, 1.26 µM (inactive); with EKVX, 8.57 µM (inactive). Besides, in the assay with Hs-578T, the GI50 was 2.72 µM (inactive).

On to `Oc1nnnc2c1sc1ncccc12`, for which the GI50 in the assay with OVCAR-8 was > 100 µM (inactive); in the assay on UACC-62, > 100 µM (inactive); with A498 it was 39.8 µM (inactive); with NCI/ADR-RES it was > 100 µM (inactive); in the assay with HOP-92, 47.8 µM (inactive); in the assay on IGROV-1 it was > 100 µM (inactive). Also, the GI50 with OVCAR-4, in the assay with SF-539, in the assay on OVCAR-5, in the assay with T47D, with HCC 2998 and with MDA-N was > 100 µM (inactive) throughout. Besides, the GI50 in the assay with SK-MEL-5 was > 100 µM (inactive); with PC-3 it was > 100 µM (inactive); in the assay with A549, > 100 µM (inactive); in the assay on CCRF-CEM it was > 100 µM (inactive); in the assay on NCI-H522 it was > 100 µM (inactive); in the assay on EKVX, 63.1 µM (inactive). In the assay with Hs-578T, the GI50 is > 100 µM (inactive).

For `COc1cc2c(cc1OC)C(=O)/C(=C/c1ccccc1)C2`, the GI50 in the assay with OVCAR-8 is > 100 µM (inactive); in the assay with UACC-62 it was 30.5 µM (inactive); in the assay on A498, 4.54 µM (inactive); in the assay on NCI/ADR-RES, > 66.2 µM (inactive); with HOP-92 it was > 70 µM (inactive); in the assay on IGROV-1 it was > 67 µM (inactive). In addition, the GI50 with OVCAR-4 was > 85.5 µM (inactive); in the assay with SF-539, 43.6 µM (inactive); in the assay with OVCAR-5 it was > 100 µM (inactive); in the assay with T47D, 63.5 µM (inactive); in the assay on HCC 2998 it was 78.3 µM (inactive); in the assay on MDA-N it was > 93.8 µM (inactive). The GI50 in the assay on SK-MEL-5 was 37.2 µM (inactive); in the assay on PC-3, > 58.9 µM (inactive); in the assay with A549, > 100 µM (inactive); in the assay with CCRF-CEM, 27.5 µM (inactive); in the assay with NCI-H522, 47 µM (inactive); in the assay on EKVX, > 100 µM (inactive). In the assay on Hs-578T, the GI50 was > 100 µM (inactive).

Regarding `COc1ccc(/C=c2\s/c(=C3/SC(=S)N(c4ccccc4)C3=O)n(-c3ccccc3)c2=O)cc1`, the GI50 in the assay with OVCAR-8 was > 100 µM (inactive); in the assay with UACC-62 it was 61 µM (inactive); with A498, 36.6 µM (inactive); with NCI/ADR-RES it was > 100 µM (inactive); in the assay with HOP-92 it was 21.6 µM (inactive); with IGROV-1, 19.7 µM (inactive). Also, the GI50 is > 100 µM (inactive) in the assay on OVCAR-4; 32.8 µM (inactive) with SF-539; > 100 µM (inactive) in the assay with OVCAR-5; > 100 µM (inactive) in the assay with T47D; > 100 µM (inactive) with HCC 2998; > 100 µM (inactive) in the assay on MDA-N. Besides, the GI50 was > 100 µM (inactive) in the assay with SK-MEL-5; > 100 µM (inactive) in the assay on PC-3; > 100 µM (inactive) with A549; 24 µM (inactive) in the assay with CCRF-CEM; > 100 µM (inactive) in the assay on NCI-H522; > 100 µM (inactive) in the assay with EKVX. The GI50 with Hs-578T is 18.9 µM (inactive).

Turning to `CC1(C)SCc2nc3ccccc3n21`, the GI50 in the assay with OVCAR-8, in the assay on UACC-62, with A498, in the assay with NCI/ADR-RES, in the assay with HOP-92 and in the assay with IGROV-1 was > 100 µM (inactive) throughout. Moreover, the GI50 in the assay on OVCAR-4, with SF-539, in the assay with OVCAR-5, with T47D, with HCC 2998 and in the assay with MDA-N was > 100 µM (inactive) in each case. In addition, the GI50 in the assay on SK-MEL-5, with PC-3, in the assay on A549, in the assay with CCRF-CEM, in the assay on NCI-H522 and in the assay on EKVX was > 100 µM (inactive) in each case. Also, the GI50 in the assay with Hs-578T is > 100 µM (inactive).

On to `CCO[C@@]12CCC3CC4CC[C@@](OCC)(O1)C4C32` (stereo not given in full), for which the GI50 in the assay with OVCAR-8, in the assay on UACC-62, in the assay with A498, with NCI/ADR-RES, in the assay on HOP-92 and with IGROV-1 was > 100 µM (inactive) in each case. In addition, the GI50 in the assay on OVCAR-4, in the assay with SF-539, in the assay on OVCAR-5, in the assay on T47D, with HCC 2998 and in the assay with MDA-N was > 100 µM (inactive) each time. Besides, the GI50 with SK-MEL-5, with PC-3, in the assay with A549, in the assay with CCRF-CEM, in the assay on NCI-H522 and in the assay on EKVX was > 100 µM (inactive) each time. For the same compound, in the assay on Hs-578T, the GI50 was > 100 µM (inactive).
